In US11390648B2, “Peptide” (HYSENSBIO, priority 2017, dated 2022):

Test system: Dspp gene
Test: Dspp mRNA level in human dental pulp cells treated with peptide (real-time PCR)
Format: cell-based
Conditions: hDPCs, peptide 10 μg/ml, 48 hours; ratio relative to Dspp mRNA level of untreated control; GAPDH internal control; triplicate
Procedure: Human dental pulp cells were separated from wisdom teeth of adults (aged 18-22) at the School of Dentistry, Seoul National University. In detail, all experiments were performed after the approval of the Institutional Review Board and the informed consent from patients. Wisdom teeth were fractured according to a method of Jung HS et al. (J Mol Histol.(2011)) to expose the dental pulps, and dental pulp tissues were separated with forceps. Each of the separated dental pulp tissues was cut into small pieces with a razor blade, put in a 60-mm dish, covered with a coverslip, and then cultured in a Dulbecco's modified Eagle's medium. It has been known that human dental pulp cells can differentiate into odontoblast, osteoblast, cementoblast, and periodontal ligament cells under various conditions (Tissue Eng Part A. 2014 April; 20 (7-8): 1342-51).
Total RNA was extracted from human dental pulp cells (hDPCs), and human bone marrow mesenchymal stem cells (hBMSCs) with TRIzol reagent. 2 μg of the total RNA, 1 μl of reverse transcriptase, and 0.5 μg of oligo (oligo; dT) were used to synthesize cDNA. The synthesized cDNA was used in a real-time polymerase chain reaction. The real-time polymerase chain reaction was performed on an ABI PRISM 7500 sequence detection system (Applied Biosystems) and an SYBR GREEN PCR Master Mix (Takara, Japan). The real-time polymerase chain reaction was performed under conditions of 94° C., 1 min; 95° C., 15 sec; 60° C., 34 sec for 40 cycles. Results were analyzed by a comparative cycle threshold (CT) method. And the used primers are as follows (Table 17).
The human dental pulp cells (hDPCs) cultured in Example 3 were treated with the peptides (concentration of 10 μg/ml) of each group synthesized in Example 1-1, and cultured for 48 hours. Then, mRNA levels of an odontoblast differentiation marker Dspp gene expressed in the human dental pulp cells were measured, and a ratio of the measured Dspp mRNA level relative to a Dspp mRNA level measured in a control group was calculated, respectively (Tables 18 to 33).
The expression level of the Dspp gene was measured through RT-PCR and real-time PCR analysis described in Example 1-4. In this regard, GAPDH gene was used as an internal control. The experiments were performed in triplicate, and then mean values and standard deviations thereof were taken as measured values. The base sequence of the primers is described in Table 17 above.

| Substance | mRNA level of Dspp gene, Mean |
| --- | --- |
| 94 (KYQNKRK; Novel peptide) [compound 94] | 1.487 |
| 30 (KYQQKRK; Novel peptide) [compound 30] | 2.011 |
| 26 (KYQQRKR; Novel peptide) [compound 26] | 2.623 |
| 90 (KYQNRKR; Novel peptide) [compound 90] | 1.797 |
| 45 (KYKRKKK; Novel peptide) [compound 45] | 3.051 |
| 87 (KYKNKKR; Novel peptide) [compound 87] | 1.888 |
| 38 (KYRRKRK; Novel peptide) [compound 38] | 2.099 |
| 32 (KYQQKRR; Novel peptide) [compound 32] | 2.303 |
| 78 (KYRNKRK; Novel peptide) [compound 78] | 2.109 |
| 102 (KYNQKRK; Novel peptide) [compound 102] | 1.855 |
| 24 (KYKQKRR; Novel peptide) [compound 24] | 8.512 |
| 121 (KYKKRKK; Novel peptide) [compound 121] | 2.024 |
| 29 (KYQQKKK; Novel peptide) [compound 29] | 2.926 |
| 100 (KYNQRRR; Novel peptide) [compound 100] | 1.599 |
| 59 (KYNKRRK; Novel peptide) [compound 59] | 2.463 |
| 62 (KYNKKRK; Novel peptide) [compound 62] | 2.752 |
| 91 (KYQNRRK; Novel peptide) [compound 91] | 1.913 |
| 118 (KYRKKRK; Novel peptide) [compound 118] | 2.015 |
| 19 (KYKQRRK; Novel peptide) [compound 19] | 7.931 |
| 61 (KYNKKKK; Novel peptide) [compound 61] | 1.909 |
| 13 (KYRQKKK; Novel peptide) [compound 13] | 6.655 |
| 95 (KYQNKKR; Novel peptide) [compound 95] | 1.939 |
| 92 (KYQNRRR; Novel peptide) [compound 92] | 1.498 |
| 37 (KYRRKKK; Novel peptide) [compound 37] | 3.303 |
| 85 (KYKNKKK; Novel peptide) [compound 85] | 1.838 |
| 7 (KYQRKKR; Novel peptide) [compound 7] | 6.881 |

| Substance | mRNA level of Dspp gene, Mean |
| --- | --- |
| 47 (KYKRKKR; Novel peptide) [compound 47] | 2.439 |
| 4 (KYQRRRR; Novel peptide) [compound 4] | 7.071 |
| 21 (KYKQKKK; Novel peptide) [compound 21] | 7.893 |
| 80 (KYRNKRR; Novel peptide) [compound 80] | 2.636 |
| 110 (KYNNKRK; Novel peptide) [compound 110] | 1.595 |
| 11 (KYRQRRK; Novel peptide) [compound 11] | 7.385 |
| 52 (KYQKRRR; Novel peptide) [compound 52] | 1.949 |
| 64 (KYNKKRR; Novel peptide) [compound 64] | 1.829 |
| 81 (KYKNRKK; Novel peptide) [compound 81] | 1.757 |
| 127 (KYKKKKR; Novel peptide) [compound 127] | 1.888 |
| 99 (KYNQRRK; Novel peptide) [compound 99] | 1.737 |
| 113 (KYRKRKK; Novel peptide) [compound 113] | 1.778 |
| 84 (KYKNRRR; Novel peptide) [compound 84] | 2.101 |
| 49 (KYQKRKK; Novel peptide) [compound 49] | 1.631 |
| 88 (KYKNKRR; Novel peptide) [compound 88] | 1.539 |
| 112 (KYNNKRR; Novel peptide) [compound 112] | 1.699 |
| 105 (KYNNRKK; Novel peptide) [compound 105] | 1.664 |
| 50 (KYQKRKR; Novel peptide) [compound 50] | 1.803 |
| 74 (KYRNRKR; Novel peptide) [compound 74] | 2.105 |
| 96 (KYQNKRR; Novel peptide) [compound 96] | 2.011 |
| 25 (KYQQRKK; Novel peptide) [compound 25] | 2.491 |
| 53 (KYQKKKK; Novel peptide) [compound 53] | 1.422 |
| 117 (KYRKKKK; Novel peptide) [compound 117] | 1.929 |
| 3 (KYQRRRK; Novel peptide) [compound 3] | 6.512 |
| 66 (KYNRRKR; Novel peptide) [compound 66] | 2.072 |
| 39 (KYRRKKR; Novel peptide) [compound 39] | 3.412 |
